“Also recorded” adds a separate entry of the source.
Tested on: serotonin swelling of rat
Test: Inhibition of serotonin swelling of rat sole after application to the skin
Format: in vivo
Conditions: for Average swelling ratio (%) / Average inhibition ratio (%): rat right sole, measured 30 min after injection; for Average swelling ratio (%): 1.5 g of 2% xanthan gum solution with 3% test sample applied 2 h before serotonin injection, control 30; for Average inhibition ratio (%): 3% test sample applied 2 h before serotonin injection
Description: For clarifying the effect of the anti-inflammation analgesic preparation of the present invention, the effect of the anti-inflammation analgesic preparation on inhibition of serotonin swelling is shown below.
1.5 Grams of a 2% xanthan gum solution containing a test sample of having a concentration of 3% was applied to a portion ranging from a right femoral portion to a sole portion (bottom portion) of a rat. Two hours after the test sample was applied, a solution of 3 μg/ml of serotonin in 0.1 ml of a saline solution was hypodermically injected into the sole of the right foot. Thirty minutes after the injection of the inflammatory substance, the swelling of the sole of the right leg was measured to determine a swelling ratio. When serotonin as an inflammatory substance involving the generation of a pain is injected, a swelling involving a pain is caused.

Row | SMILES | Average swelling ratio (%) | Average inhibition ratio (%) | Inhibition of serotonin swelling (in words) (rat, 3% test sample applied to skin)
1 | CCCCCCCCCCCCOC1=C(O)C(=O)O[C@@H]1[C@@H](O)CO [L-3-0-dodecylascorbic acid] | 14 | 54 | –
2 | O=C(O)COc1nn(Cc2ccccc2)c2ccccc12 [Bendazac, reference compound] | 30 | 0 | failed to inhibit the above inflammation reaction; also recorded: showed no effect on the swelling and was ineffective
3 | CCCCCCCCCCCCC(=O)COC1=C(O)C(=O)O[C@@H]1[C@@H](O)CO [L-3-0-dodecylcarbonylmethylascorbic acid, L-3-0-dodecylcarbonyl-methylascorbic acid] | 13 | 57 | –
4 | O=C1O[C@H]([C@@H](O)CO)C([O-])=C1OP(=O)(O)O.O=C1O[C@H]([C@@H](O)CO)C([O-])=C1OP(=O)(O)O.[Mg+2] [L-ascorbic acid-2-phosphoric acid ester magnesium salt] | 28 | 7 | –
5 | CCOC1=C(O)C(=O)O[C@@H]1[C@@H](O)CO [L-3-0-ethylascorbic acid] | 12 | 76 | –
6 | CCCCCCCCCCCCCCCCCCOC(=O)COC1=C(O)C(=O)O[C@@H]1[C@@H](O)CO [L-3-0-octadecyloxycarbonylmethylascorbic acid] | 15 | 50 | –

From US6447817B1, “Anti-inflammatory analgesic” (Nippon Hypox Laboratories Inc., priority 1998, dated 2002)
